Measurements as given in US20070249729A1, “Method of Treating Elevated Plasma Homocysteine Levels in Esrd Patients” (priority 2003, published 2007).
Several values for one entry are separate records, joined by “and”; a condition that tells them apart may be missing. Identical values can stand only once. One block for each compound: values may come before it.

Legend:
[1] = tested on: total plasma Hcy and cysteine; assay: In vivo pilot study, 3 ESRD hemodialysis patients, single iv Mesna: intra-dialytic plasma tHcy and cysteine; set-up: species or system human
Source text: 3 vitamin supplemented ([…], Landmark Medical Systems Inc. Unionville, Ontario) maintenance hemodialysis patients (2 males, 1 female) were recruited from the dialysis unit at London Health Sciences Centre-University Campus. Inclusion criteria were any vitamin supplemented patients on thrice weekly hemodialysis for at least 90 days who were willing to sign a letter of informed consent. Patients were excluded from the study if they had serum albumin≦30 g/L. The study protocol was approved by the human subject research ethics board at the University of Western Ontario. Patients were dialyzed with Fresenius Optiflux hollow fiber dialyzers (Fresenius AG, Bad Homburg, Germany). […] On day 5 (corresponding to the third dialysis session) blood samples were also drawn at various times throughout the dialysis treatment (0.5, 1.0, 2.0 and 3.0 hours) to determine baseline kinetic data. Undiluted ultrafiltrate was obtained from 2 patients by stopping the dialysate flow while maintaining the patient on ultrafiltration. Once 200 ml of dialysate had been displaced from the dialyzer, an undiluted ultrafiltrate sample was drawn from a port specially installed for the study. On the treatment day (a mid-week dialysis session corresponding to day 7 of the study), a single 5 mg/kg dose of Mesna was infused directly into the venous return on the dialysis machine over 5 minutes. […] Undiluted ultrafiltrate was also collected from 2 of the patients as described above. Pre- and post-dialysis blood samples were also drawn on each of the 3 subsequent dialysis treatments (corresponding to days 9, 12 and 14) to determine the duration of Mesna's action and how long it remains in the blood. […] Plasma and ultrafiltrate were stored at -20° C. until analysis. […] Results are shown as mean +/-SD. Intra-dialytic changes in tHcy and cysteine concentrations were analyzed by a paired students t-test.

[2] = Intra-dialytic Mesna kinetics in 3 ESRD hemodialysis patients; assay type: in vivo, human
Experimental: (§1) To assess baseline total plasma Hcy concentrations, 5 ml blood samples (EDTA) were drawn pre- and post-dialysis for all 7 dialysis sessions during the 14 day study period. On day 5 (corresponding to the third dialysis session) blood samples were also drawn at various times throughout the dialysis treatment (0.5, 1.0, 2.0 and 3.0 hours) to determine baseline kinetic data. Undiluted ultrafiltrate was obtained from 2 patients by stopping the dialysate flow while maintaining the patient on ultrafiltration. Once 200 ml of dialysate had been displaced from the dialyzer, an undiluted ultrafiltrate sample was drawn from a port specially installed for the study. On the treatment day (a mid-week dialysis session corresponding to day 7 of the study), a single 5 mg/kg dose of Mesna was infused directly into the venous return on the dialysis machine over 5 minutes. Blood samples were drawn pre-dialysis, 4 minutes after Mesna administration, 0.5, 1.0, 2.0, 3.0 hours and post-dialysis. Undiluted ultrafiltrate was also collected from 2 of the patients as described above. Pre- and post-dialysis blood samples were also drawn on each of the 3 subsequent dialysis treatments (corresponding to days 9, 12 and 14) to determine the duration of Mesna's action and how long it remains in the blood. All blood samples were immediately placed on ice and centrifuged within 30 minutes at 1500×g for 10 minutes. Plasma and ultrafiltrate were stored at −20° C. until analysis.
Therefore, the inventors modified the chromoatographic conditions such that 4% acetonitrile was run for 7 minutes and then a gradient of 4% to 70% acetonitrile was used from 7 to 20 minutes.

[3] = Tolerability of Mesna in ESRD hemodialysis patients; assay type: in vivo, human
Experimental: as §1, with “Plasma and ultrafiltrate were stored at −20° C. until analysis.” left out

plasma tHcy and cysteine = assay: Single dose pilot study, 5 maintenance hemodialysis patients: plasma and dialysate tHcy and cysteine; assay type: in vivo, human
Experimental: Blood samples were drawn at selected intervals during a mid-week dialysis session during which no Mesna was given. One week later, subjects received a single, 5 mg/kg, pre-dialysis, intravenous dose of Mesna and blood samples were drawn throughout the dialysis session. Dialysate samples were also collected from 2 patients. […] A pre-dialysis plasma sample was also drawn before the next dialysis session 2 days later.

[4] = human, in vivo
Experimental: To evaluate the in vivo effect of Mesna on plasma tHcy, 5 maintenance hemodialysis patients were recruited to participate in a single dose pilot study. Blood samples were drawn at selected intervals during a mid-week dialysis session during which no Mesna was given. One week later, subjects received a single, 5 mg/kg, pre-dialysis, intravenous dose of Mesna and blood samples were drawn throughout the dialysis session. Dialysate samples were also collected from 2 patients. Total Hcy and cysteine were measured in plasma and dialysate by the modified method of Jacobsen et al.^20 Mesna caused a profound, rapid decrease in plasma tHcy and cysteine (see FIG. 11 and 12). […] A pre-dialysis plasma sample was also drawn before the next dialysis session 2 days later. Plasma tHcy was 2.3 μM lower with Mesna than control (P=0.047) indicating a residual effect of Mesna on tHcy concentrations.
Concentrations of Mesna were also measured in plasma (n=5) and dialysate (n=2) (see FIG. 13).

[5] = tested on: plasma tHcy, fractional excretion of Hcy; assay: Oral Mesna, Hcy clearance in 2 subjects with normal kidney function; assay type: in vivo, human
Experimental: The effect of oral Mesna on Hcy clearance was also evaluated in 2 subjects with normal kidney function. The subjects fluid loaded by consuming 2 L of water the morning of the study day. An indwelling catheter was inserted into an appropriate arm vein. At the beginning of the study subjects were asked to void urine and 2×5 mL blood samples were drawn for analysis of tHcy and creatinine. Subsequent blood samples were drawn at 0.5, 1.0 and 1.5 hours for determination of baseline tHcy and creatinine. At these times subjects were also asked to void urine for measurement of urinary tHcy, creatinine and urine volume. Subjects were then given a 10 mg/kg oral dose of Mesna. One hour after the dose, subjects were asked to void their urine and 2×5 mL blood samples were drawn for determination of tHcy and creatinine. At 1.5, 2.0, and 2.5 hours after Mesna, blood samples were drawn for tHcy and creatinine analysis. Urine was also collected at these times for determination of urinary Hcy, creatinine and urinary volume. A final blood sample was drawn 4 hours after administration of Mesna. Mesna caused a slow, small (1.5 μM) decrease in plasma tHcy concentration in both subjects (see FIG. 14). Mesna was detectable in plasma however, maximum concentration (mean 88.6 μM) was less than the 5 mg/kg administered intravenously to dialysis patients (FIG. 15). The fractional excretion of Hcy ([CLHcy/CLCreat]*100) was assessed in the presence and absence of Mesna (see FIG. 16). In the absence of Mesna the fractional excretion of Hcy was only 0.1%. When Mesna was administered the fractional Hcy excretion raised 60 fold to 6.0%.

albumin bound Hcy = albumin bound Hcy (Homo sapiens, UniProt P02768); settings: 305 μmol/L Mesna
Experimental: Plasma was supplemented with reduced homocysteine (30 μmol/L) and allowed to equilibrate with protein and endogenous thiols for 72 hours. Mesna or diluent (control) was then added to the plasma and incubated at 37° C. for 15 minutes. 1 ml of plasma was pipetted into a micropartition device and centrifuged at 1500×g for 10 minutes. Free (dialyzable) Hcy was then determined in the ultrafiltrate.
30 ml of blood (EDTA) was obtained from a healthy subject with normal renal function. The blood was immediately centrifuged at 1500×g and the plasma was separated. D,L Homocysteine was then added to the plasma to a final concentration of 30 μmol/L. The sample was incubated at 4° C. for 72 hours to allow the homocysteine to covalently bind to protein and other thiols. Mesna was added to 1 ml of plasma to a final concentration of 305 μmol/L. An equal volume of diluent was added to 1 ml of plasma as a control. The plasma (1 ml) was then incubated at 37° C. for 15 minutes after which it was pipetted into an Amicon (Amicon Canada, Oakville, Ontario) type YMT micropartition system for separation of free from protein bound solutes. The micropartition system was centrifuged at 1500 X g for 10 minutes and the ultrafiltrate obtained was stored at −20° C. until analysis.
Total plasma Hcy and other low molecular weight thiols were measured by HPLC-FD after pre-column derivitization as described by Jacobsen et al.^20 Briefly, disulfide bonds were reduced with 1.43 M sodium borohydride. Excess reducing agent was consumed by the addition of 1.2 M HCl after which thiols were derivitized with monobromobimane. Protein was precipitated with 1.5 M perchloric acid and the sample pH was raised to ˜3.5 with a solution of 2M citrate and 10 N NaOH.
Thiol amino acids were separated on a Waters Nova-Pak C18 (150×3.9 mm, 5μ) column. The mobile phase consisted of 4% acetonitrile/25 mM ammonium formate buffer, pH=3.8. Since Mesna is also a low molecular weight thiol it can also be measured as a bimane derivative, although it is very late eluting when the above mentioned chromatographic conditions are used. […]

[6] = cited from earlier work
plasma Hcy = settings: iv Mesna for 5 days, cancer chemotherapy patients, from 12.3 μmol/L; cited from earlier work
protein bound Hcy = protein bound Hcy (Homo sapiens, UniProt P02768); assay: In vitro thiol exchange assay (free dialyzable Hcy in plasma/serum); settings: for AUC of free Hcy vs time: 300 μM, plasma of healthy subjects, n=6, mean +/-SE
Experimental: To determine the efficacy of Mesna in vitro a thiol exchange assay was developed. This assay evaluates the ability of thiol-containing drugs to exchange with protein bound Hcy and other thiols yielding a larger free, dialyzable fraction of Hcy. 60 mL of blood was drawn from 6 healthy subjects and plasma was obtained by centrifugation at 1500×g. D,L Homocysteine was then added to each plasma sample to a final concentration of 30 μM. The samples were allowed to equilibrate at 4° C. for 72 hours to allow covalent, disulfide bonding of Hcy to plasma proteins. To conduct each assay, 380 μL of the aforementioned plasma was pipetted into a 1.7 mL polypropylene snap-cap tube. 20 uL of Mesna (diluted in 4 mM ethylenediaminetetraacetic acid disodium salt (EDTA), pH=7) was then added to the sample to final concentrations ranging from 0 μM (EDTA vehicle) to 10 000 μM. The sample was incubated for 30 minutes at 37° C. 50 μL aliquots were removed at 0, 2, 5, 10, 15 and 30 at which time plasma proteins were precipitated with 25 μL of 15% sulphosalicylic acid. […] Results for each concentration of Mesna are mean +/−SE, n=6.
Numerous compounds that may modulate protein binding and thiol exchange accumulate in the serum of patients with end-stage renal disease (ESRD). To verify that none of these compounds alter Mesna's exchange with protein bound Hcy, a single concentration of Mesna (300 μM) was tested in a thiol exchange assay (described in Example 4) in serum from patients with ESRD or healthy controls.
The in vitro thiol exchange potential of Mesna was compared with another thiol-containing drug, n-acetylcysteine (NAC) by the thiol exchange assay described in Example 4. 300 μM NAC was compared with 150 and 300 μM Mesna in the plasma of healthy subjects.

plasma tHcy = settings: oral, 4 weeks of treatment, patients on hemodialysis; cited from earlier work
[7] = isolated perfused rat liver; cited from earlier work
[8] = single 5 mg/kg pre-dialysis iv dose, n=5

Sequence of albumin bound Hcy (P02768 25-609): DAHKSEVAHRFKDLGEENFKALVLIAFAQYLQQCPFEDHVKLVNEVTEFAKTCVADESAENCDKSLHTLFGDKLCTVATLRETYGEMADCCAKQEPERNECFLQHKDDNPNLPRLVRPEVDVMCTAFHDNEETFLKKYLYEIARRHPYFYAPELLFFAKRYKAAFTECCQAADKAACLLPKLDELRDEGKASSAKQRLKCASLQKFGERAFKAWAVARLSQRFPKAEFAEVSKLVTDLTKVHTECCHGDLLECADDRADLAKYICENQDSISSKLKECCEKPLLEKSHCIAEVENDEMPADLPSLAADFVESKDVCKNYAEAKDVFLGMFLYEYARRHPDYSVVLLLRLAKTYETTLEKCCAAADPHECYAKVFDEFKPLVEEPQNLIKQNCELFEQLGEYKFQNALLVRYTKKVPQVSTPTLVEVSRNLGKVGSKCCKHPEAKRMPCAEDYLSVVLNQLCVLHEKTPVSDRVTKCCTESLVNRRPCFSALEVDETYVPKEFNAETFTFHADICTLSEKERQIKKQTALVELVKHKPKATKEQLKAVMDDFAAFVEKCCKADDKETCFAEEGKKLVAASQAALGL
Sequence of protein bound Hcy (P02768 25-609): as above

concentration at 14 study day ([2]; human, plasma, intravenous, 5 mg/kg, end of the study period (day 14)): 13.4 µM | concentration at 4 min ([2]; human, plasma, shortly after administration, 5 mg/kg iv, 3 patients): 296 µM | plasma Mesna concentration ([2]; post-dialysis, 5 mg/kg iv, 3 patients): 89.7 ± 32.5 µmol/L | plasma Mesna concentration ([2]; second patient, ~3.5 hours after administration, at onset of nausea): ~60 µmol/L | elimination during dialysis [4]: first order elimination | free Hcy as % of the total plasma Hcy (albumin bound Hcy; 15 minute incubation): 27.2% and 27% | Hcy in the free dialyzable form (ultrafiltrate) (albumin bound Hcy; 15 minute incubation at 37° C., plasma spiked with 30 μmol/L Hcy): 8.2 µmol/L | effect on fraction of free dialyzable Hcy (protein bound Hcy; 0 to 10 000 μM Mesna, plasma spiked 30 μM Hcy, n=6): concentration dependent increase | AUC of thiol exchange, ESRD serum vs. healthy controls (protein bound Hcy; 300 μM Mesna, P>0.05): no significant difference | AUC of free Hcy vs time (protein bound Hcy): 1023+/−86.0 | time to maximal thiol exchange after Mesna addition (protein bound Hcy; further in vitro studies with plasma): ≤ 2 min
SMILES: O=S(=O)(O)CCS.[Na] [Mesna, sodium 2-mercaptoethane sulfonic acid]
effect on post-dialysis cysteine ([1]; 5 mg/kg iv, 3 patients, p=0.009): significant decrease | effect on post-dialysis tHcy ([1]; 5 mg/kg iv, 3 patients, p=0.035): significant decrease | pre-dialysis plasma Hcy at second cycle after Mesna ([1]; day 12, all patients): returned to baseline | time to decrease of total plasma homocysteine after administration ([1]; intravenous Mesna, human subjects): ≤ 30 min | decrease in pre-dialysis plasma tHcy, day 9 vs day 7 ([1]; patient 1): 3.7 µmol/L | decrease in pre-dialysis plasma tHcy, day 9 vs day 7 ([1]; patient 2): 1.1 µmol/L | decrease in pre-dialysis plasma tHcy, day 9 vs day 7 ([1]; patient 3): 3.1 µmol/L | post-dialysis tHcy concentration ([1]; single iv 5 mg/kg Mesna, 3 ESRD patients): 10.1 µmol/L | additional decrease of total plasma Hcy compared to dialysis alone ([1]; single iv 5 mg/kg dose during dialysis): 29% | UF Hcy following Mesna treatment ([1]; undiluted ultrafiltrate, 2 patients): No increase | tolerability, side effect ([3]; 5 mg/kg iv, two of 3 patients): mild nausea | dialysate Hcy with Mesna compared to control (plasma tHcy and cysteine; n=2): slight increase | pre-dialysis plasma tHcy lower with Mesna than control (plasma tHcy and cysteine; next dialysis session 2 days later, P=0.047): 2.3 µM | post-dialysis plasma cysteine (plasma tHcy and cysteine; [8]): 165.1 ± 7.4 µM | post-dialysis plasma tHcy (plasma tHcy and cysteine; [8]): 11.6 ± 1.7 µM | rise of fractional Hcy excretion ([5]; 10 mg/kg oral dose vs absence of Mesna): 60 fold | decrease in plasma tHcy concentration ([5]; 10 mg/kg oral dose, 2 subjects with normal kidney function): 1.5 µM | fractional excretion of Hcy ([CLHcy/CLCreat]*100) ([5]; 10 mg/kg oral dose, normal kidney function): 6.0% | pKa of the thiol [6]: 9.1 | plasma Hcy after Mesna (plasma Hcy): 1.4 µmol/L

AUC of free Hcy vs time (protein bound Hcy): 642+/−49.7
SMILES: CC(=O)N[C@@H](CS)C(=O)O [NAC, n-acetylcysteine]
effect on pre-dialysis plasma tHcy (plasma tHcy): small, non-significant decrease

SMILES: N[C@@H](CS)C(=O)O [cysteine]
pKa of the thiol [6]: 8.15

SMILES: O=S(=O)([O-])CCSSCCS(=O)(=O)[O-].[Na+].[Na+] [diMesna, Mesna disulfide]
metabolic reduction [7]: reduce diMesna to Mesna

SMILES: CN(C)CCOC(c1ccccc1)c1ccccc1.Cn1c(=O)c2[nH]c(Cl)nc2n(C)c1=O [dimenhydrinate]
time to reversal of nausea symptoms ([3]; administration of dimenhydrinate to patients with Mesna-associated nausea): ≤ 1 min

SMILES: N[C@@H](CCS)C(=O)O [homocysteine]
pKa of the thiol [6]: 8.7
